# Measured values published in patent US10501511B2, “Low molecular polypeptide for preventing and treating inflammation and use thereof” (SHANGHAI FIRST PEOPLE'S HOSPITAL, priority 2013, dated 2019).
# Where a SMILES comes first, the peptide text is derived from it.
# Columns and labels:
# RAW264.7 cells = assay: Cytotoxicity assay (MTS colorimetric method), relative growth rate; assay type: cell-based, murine; details: concentration range of 0.1 μm-1 mM
# Procedure: (§1) 1.1 Experimental cell strain and Materials: murine peritoneal macrophage cell line RAW264.7 were purchased from the Cell Bank of Shanghai Institutes for Biological Sciences, CAS; DMEM high glucose medium were purchased from GIBCO; MTS were purchased from Promega, prepared into 300 mmol/L in PBS (pH 6.0) and stored at −20° C. in darkness.
# (§2) 1.2 Model establishment and Intervention test: RAW264.7 cells were cultured in high glucose DMEM medium containing 10% fetal bovine serum (FBS), and 100 U/ml double antibiotics of penicillin and streptomycin, and placed in 37° C., 5% CO2 incubator for amplification. Cells at logarithmic growth phase were seeded in 96-well plates at 1×10^5/ml. When adhered cells grew well and were cultured to 80-90% of confluence, the medium was replaced by a DMEM medium without 10% FBS for serum-starved culture for 24 hours.
# (§3) 1.3 Cytotoxicity assay (MTS colorimetric method): After the cells were cultured for 24 hours in serum starvation, different concentrations of H-RN (0.1, 1, 10 μM, 100 μM, 1 mM, 100 μl) were added into each well with sextuplicate wells for each concentration. The blank control group was added with an equal volume of DMEM medium. The plates were placed in 37° C., 5% CO2 incubator and cultured for 24 hours, added with 20 μl of MTS solution to each well and cultured for another 4 hours. The absorbance of each well was measured by an enzyme-linked immunosorbent detector in 490 nm, and the relative growth rate (RGR) of cells was calculated. Formula: RGR=A value of experimental group/A value of control group×100%.
# (§4) 1.5. Statistic analysis: The experiment data was shown as x±s. SPSS 11.0 statistical package was used for statistic analysis and one-way ANOVA was used to compare RGR of cells between the groups, and P<0.05 represents statistical significance.
# [1] = as above; assay type: cell-based, murine; details: mouse, RAW264.7 macrophage cells, 24 hours, MTS, blank 100.05±3.95%, read-out: relative growth rate (RGR) of cells
# Procedure: as §1, §2, §3, §4
# [2] = test system: Rat Endotoxin-induced Uveitis (EIU) model; assay: Count of inflammatory cell infiltration in aqueous humor of EIU rats; assay type: in vivo, Wistar rats; details: 24 hours, LPS group 164.20±142.7
# Procedure: (§5) 1.1 Experiment animals and materials: healthy male Wistar rats, 140-180 g, 8-10 weeks old, were purchased from Animal Center of Chinese Academy of Medical Sciences; Lipopolysaccharides (LPS), derived from Escherichia coli, was purchased from SIGMA-Aldrich Corporation (U.S.A).
# (§6) 1.2 Model establishment and Intervention test: Wistar rats were randomly divided into six groups (9-15 rats for each group) which were LPS group, LPS+1 μg/μl H-RN intervention group, LPS+5 μg/μl H-RN group, LPS+10 μg/μl H-RN group, LPS+10 μg/μl DXM and normal control group (PBS) respectively. 200 μg LPS (2 mg/ml, 100 μl, dissolved in sterile saline) was subcutaneously injected into right foot pad of rats, thereby establishing EIU model. The normal control group was subcutaneously injected with 100 μl sterile saline into the right foot pad of rats. In LPS group, LPS+H-RN (1, 5, 10 μg/μl) intervention group and LPS+10 μg/μl DXM group, each rat was subcutaneously injected with 200 μg LPS into the right foot pad, meanwhile, PBS 10 μl, H-RN PBS solution (1, 5 and 10 μg/μl) 10 μl and DXM PBS solution (10 μg/μl) 10 μl were injected into vitreous chamber respectively.
# 1.4 Quantitative count for inflammatory cell infiltration in rat aqueous humor: 24 hours after LPS and drug intervention, rats were sacrificed in excess of anesthesia. Under an operating microscope, aqueous humor (30-40 μl/binoculus) was collected by anterior chamber paracentesis with a 30-gauge microsyringe at 1 mm from rat corneal limbus. Aqueous humor samples were diluted with an equal amount of trypan blue dye liquid. Cells in aqueous humor were counted using a hemocytometer under light microscopy by two independent technicians for each region (equivalent with 0.1 μl). The average of the four regions was the number of cells contained in 1 μl aqueous humor.
# (§7) The experiment data was shown as x±s. A one-way ANOVA was used to compare the change of inflammatory cell infiltration of rats in each group. P<0.05 represents statistical significance.
# [3] = test system: IL-6 in LPS-induced RAW264.7 cells; assay: IL-6 concentration (ELISA) in supernatant of LPS-induced RAW264.7 cells; assay type: cell-based, murine; details: for concentration of IL-6 in cell supernatant: LPS group 2650.00±106.07, control 213.00±15.56; for IL-6: Samples 10 μM, Control (LPS) 2713.95
# Procedure: (§8) 1.1 Experimental cell strain and Materials: murine peritoneal macrophage cell strain RAW264.7 were purchased from the Cell Bank of Shanghai Institutes for Biological Sciences, CAS; DMEM high glucose medium was purchased from GIBCO; mouse tumor necrosis factor-α (TNF-α) and interleukin-6 (IL-6) enzyme-linked immunosorbent assay (ELISA) kits were purchased from R & D company, US.
# as §2, with “Logarithmic” for “logarithmic”, “24-well” for “96-well”, “2.5×10^5/ml.” for “1×10^5/ml.”, “hours. RAW264.7 cells were randomly divided into control group, LPS group, LPS+H-RN group with sextuplicate wells for each group. LPS group and LPS+H-RN group were added with 500 μl of different concentrations of H-RN (1, 10, 100 μM) and LPS (100 ng/ml) and the control group was added with an equal volume of DMEM medium, each group was placed in 37° C., 5% CO2 incubator and routinely cultured. Cell supernatants were collected after 24 hours.” for “hours.”
# (§9) The experiment data was shown as x±s. SPSS 11.0 statistical package was used for statistic analysis and one-way ANOVA was used to compare TNF-α and IL-6 level in supernatant between the groups, and P<0.05 represents statistical significance.
# [4] = test system: Rat Endotoxin-induced Uveitis (EIU) model; assay: Clinical manifestation score in rat endotoxin-induced uveitis (EIU) model; assay type: in vivo, Wistar rats; details: 10 μl into vitreous chamber, 24 hours, score 0-4
# Procedure: as §5, §6
# 1.3 Qualitative observation for Clinical manifestations of EIU rats: 24 hours after drug and LPS intervention, rats were observed by biological microscope. The clinical manifestations of rats were evaluated and scored by an independent observer according to the method of Behar-Cohen et al. The severity of EIU was represented by 0-4 scores: 0: no inflammation; 1: mild dilation in conjunctiva and iris vessel; 2: moderate dilation in conjunctiva and iris vessel with anterior chamber flare; 3: severe iris hyperemia with severe anterior chamber flare; 4: anterior chamber cellulose-like exudation, posterior synechia, miosis and hypopyon in addition to 3 points.
# as §7
# [5] = Water solubility of synthesized polypeptide powder; assay type: physicochemical; details: white powder
# [6] = test system: TNF-α in LPS-induced RAW264.7 cells; assay: TNF-α concentration (ELISA) in supernatant of LPS-induced RAW264.7 cells; assay type: cell-based, murine; details: for concentration of TNF-α in cell supernatant: LPS group 1333.00±476.59, control 561.00±25.65; for TNF-α: Samples 10 μM, Control (LPS) 1425.60
# Procedure: as §8
# as §2, with “Logarithmic” for “logarithmic”, “24-well” for “96-well”, “2.5×10^5/ml.” for “1×10^5/ml.”, “hours. RAW264.7 cells were randomly divided into control group, LPS group, LPS+H-RN group with sextuplicate wells for each group. LPS group and LPS+H-RN group were added with 500 μl of different concentrations of H-RN (1, 10, 100 μM) and LPS (100 ng/ml) and the control group was added with an equal volume of DMEM medium, each group was placed in 37° C., 5% CO2 incubator and routinely cultured. Cell supernatants were collected after 24 hours.” for “hours.”
# as §9
# [7] = LPS + 10 μg/μl peptide intravitreal
# [8] = 1 μM peptide + LPS 100 ng/ml, 24 hours, P>0.05
# [9] = 10 μM peptide + LPS 100 ng/ml, 24 hours
# [10] = 100 μM peptide + LPS 100 ng/ml, 24 hours
# [11] = LPS + 10 μg/μl peptide, LPS group 3.56±0.51
molecule,measurement,setting,value
"N=C(N)NCCC[C@H](NC(=O)[C@@H]1CCCN1C(=O)[C@H](CC(N)=O)NC(=O)[C@@H](N)CCCNC(=N)N)C(=O)NCC(=O)N[C@@H](CCC(=O)O)C(=O)N[C@@H](CCC(=O)O)C(=O)NCC(=O)NCC(=O)N1CCC[C@H]1C(=O)N[C@@H](Cc1c[nH]c2ccccc12)C(=O)O [H-RN, RNPRGEEGGPW] (H-RNPRGEEGGPW-OH; N-terminus assumed)",toxic effects on cells,RAW264.7 cells,no significant toxic effects
same,"viability at 24 h, 0.1 µM",[1]; 0.1 μM,96.9 ± 3.64%
same,"viability at 24 h, 1 µM",[1]; 1 μM,100 ± 2.67%
same,"viability at 24 h, 10 µM",[1]; 10 μM,98.3 ± 3.91%
same,"viability at 24 h, 100 µM",[1]; 100 μM,101 ± 4%
same,"viability at 24 h, 1000 µM",[1]; 1 mM,95.8 ± 4.92%
same,count of inflammatory cells in aqueous humor,[2]; LPS + 1 μg/μl peptide intravitreal,49.14±40.84 ×10^5 cells/ml
same,count of inflammatory cells in aqueous humor,[2]; LPS + 5 μg/μl peptide intravitreal,40.40±31.34 ×10^5 cells/ml
same,count of inflammatory cells in aqueous humor,[2]; [7],37.35±21.44 ×10^5 cells/ml
same,IL-6 in cell supernatant compared with LPS group,[3]; [8],no significant difference
same,concentration of IL-6 in cell supernatant,[3]; [9],1385.00 ± 101.54 pg/mL
same,concentration of IL-6 in cell supernatant,[3]; [10],1355.00 ± 134.35 pg/mL
same,EIU clinical score,"[4]; LPS + 1 μg/μl H-RN, LPS group 3.56±0.51, normal control 0.50±0.54",2.42±0.53
same,EIU clinical score,"[4]; LPS + 5 μg/μl peptide, LPS group 3.56±0.51",2.12±0.64
same,EIU clinical score,[4]; [11],1.92±0.27
same,water solubility,[5],good water solubility
same,TNF-α in cell supernatant compared with LPS group,[6]; [8],no significant difference
same,concentration of TNF-α in cell supernatant,[6]; [9],737.00 ± 155.56 pg/mL
same,concentration of TNF-α in cell supernatant,[6]; [10],718.00 ± 79.19 pg/mL
"GPERWRGPNGE [H-GP, reference compound]",count of inflammatory cells in aqueous humor,[2]; [7],134.66±98.23 ×10^5 cells/ml
same,IL-6 in cell supernatant compared with LPS group,"[3]; 100 μM peptide, p>0.05",no significant difference
same,EIU clinical score,[4]; [11],3.32±0.61
same,TNF-α in cell supernatant compared with LPS group,"[6]; 100 μM peptide, p>0.05",no significant difference
"KQPRGEEGGPW [Derived polypeptide 2, polypeptide derived from H-RN]",IL-6,[3],1356.46 pg/mL
same,TNF-α,[6],701.63 pg/mL
"NPRGEEGGP [Derived polypeptide 5, polypeptide derived from H-RN]",IL-6,[3],1395.34 pg/mL
same,TNF-α,[6],745.70 pg/mL
"QNPRGDEPGPW [Derived polypeptide 4, polypeptide derived from H-RN]",IL-6,[3],1411.87 pg/mL
same,TNF-α,[6],765.92 pg/mL
"RNPKGEEGGPW [Derived polypeptide 1, polypeptide derived from H-RN]",IL-6,[3],1365.29 pg/mL
same,TNF-α,[6],724.98 pg/mL
"RNPRGEEGGPWCF [Derived polypeptide 6, polypeptide derived from H-RN]",IL-6,[3],1369.41 pg/mL
same,TNF-α,[6],696.77 pg/mL
"RNPRPEEGGAY [Derived polypeptide 3, polypeptide derived from H-RN]",IL-6,[3],1402.54 pg/mL
same,TNF-α,[6],792.31 pg/mL
